Measurements from article PMC9412414, “A Study on Repositioning Nalidixic Acid via Lanthanide Complexation: Synthesis, Characterization, Cytotoxicity and DNA/Protein Binding Studies” (Pharmaceuticals, 2022).

Columns and labels:
[1] = test system: HUVEC (human umbilical vein endothelial cells); assay: MTS cytotoxicity assay, HUVEC normal cell line; format: cell-based; conditions: 24 h of incubation
[2] = test system: LoVo (human colorectal adenocarcinoma) cell line; assay: MTS cytotoxicity assay, LoVo cell line; format: cell-based; conditions: 48 h of incubation
apotransferrin (apo-Tf) = molecular target: T1, apotransferrin (apo-Tf) (Homo sapiens, UniProt P02787); assay: Apo-Tf fluorescence quenching binding study
T1 construct: purchased Sigma-Aldrich Chemical Co. (Schnelldorf, Germany)

EB–DNA system (CT-DNA) = assay: Competitive binding assay with ethidium bromide (EB) through fluorescence spectroscopy; set-up: species or system calf; conditions: EB 2 µM, CT-DNA 10 µM, compound 0–40 µM
[3] = molecular target: T2, human serum albumin (HSA) (Homo sapiens, UniProt P02768); assay: HSA fluorescence quenching binding study
T2 construct: purchased Sigma-Aldrich Chemical Co. (Schnelldorf, Germany)

[4] = from Ksv* with τ0 = 10^−8 s, 298 K

T1 sequence (P02787 20-698): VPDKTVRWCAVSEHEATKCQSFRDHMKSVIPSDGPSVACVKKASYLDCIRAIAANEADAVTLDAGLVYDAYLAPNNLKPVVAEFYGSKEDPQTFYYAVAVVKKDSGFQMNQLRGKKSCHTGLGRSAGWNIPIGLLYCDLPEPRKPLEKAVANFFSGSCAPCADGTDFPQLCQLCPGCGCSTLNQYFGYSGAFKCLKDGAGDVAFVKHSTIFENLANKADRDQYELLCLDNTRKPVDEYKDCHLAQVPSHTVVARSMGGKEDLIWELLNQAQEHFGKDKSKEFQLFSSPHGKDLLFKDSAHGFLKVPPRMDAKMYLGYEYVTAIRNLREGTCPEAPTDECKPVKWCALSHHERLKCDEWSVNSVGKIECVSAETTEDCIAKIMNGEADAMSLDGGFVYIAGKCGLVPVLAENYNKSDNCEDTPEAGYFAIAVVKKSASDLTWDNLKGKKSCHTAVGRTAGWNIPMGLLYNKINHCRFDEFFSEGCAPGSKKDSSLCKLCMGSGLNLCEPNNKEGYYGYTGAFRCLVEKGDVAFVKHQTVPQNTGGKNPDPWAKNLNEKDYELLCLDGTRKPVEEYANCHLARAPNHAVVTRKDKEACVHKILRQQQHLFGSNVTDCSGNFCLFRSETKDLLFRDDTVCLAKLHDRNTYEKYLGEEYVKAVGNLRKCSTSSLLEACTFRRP
T2 sequence (P02768 25-609): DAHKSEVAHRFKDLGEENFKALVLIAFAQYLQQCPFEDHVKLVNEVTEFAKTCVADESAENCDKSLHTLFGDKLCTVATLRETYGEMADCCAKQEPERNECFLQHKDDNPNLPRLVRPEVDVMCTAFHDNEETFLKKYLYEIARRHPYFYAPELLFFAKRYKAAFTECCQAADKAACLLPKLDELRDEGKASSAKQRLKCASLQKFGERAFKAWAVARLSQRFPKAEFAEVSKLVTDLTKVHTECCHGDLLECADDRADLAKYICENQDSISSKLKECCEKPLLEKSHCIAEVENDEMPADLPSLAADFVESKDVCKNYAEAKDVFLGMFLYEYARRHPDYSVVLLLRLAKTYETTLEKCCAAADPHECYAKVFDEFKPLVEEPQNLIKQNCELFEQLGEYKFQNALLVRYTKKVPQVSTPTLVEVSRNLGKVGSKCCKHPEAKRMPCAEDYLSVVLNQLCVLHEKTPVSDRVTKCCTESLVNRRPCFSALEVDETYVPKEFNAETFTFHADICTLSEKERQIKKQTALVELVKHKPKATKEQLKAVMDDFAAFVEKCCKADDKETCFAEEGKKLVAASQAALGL

For `CCn1cc(C(=O)[O-])c(=O)c2ccc(C)nc21.CCn1cc(C(=O)[O-])c(=O)c2ccc(C)nc21.O.O.O.[La+3].[OH-]` [La(nal)2, La(C12H11N2O3)2(OH)(H2O)·2H2O], the IC50 [1] was 114 ± 46.8 µM, the IC50 [2] was 25.1 ± 9.11 µM and the “Ka (association binding constant), Apo-Tf” value (apotransferrin (apo-Tf); apo-Tf 1 µM, 298 K) was “(6.94 ± 2.32) × 10^4 M^−1”. The “n1 (Number of Binding Sites), Apo-Tf” value (apotransferrin (apo-Tf); apo-Tf 1 µM, 298 K) was 1.00 ± 0.03, the “n2 (Hill Coefficient), Apo-Tf” value (apotransferrin (apo-Tf); apo-Tf 1 µM, 298 K) was 1.82 ± 0.55 and the Kd (apotransferrin (apo-Tf); apo-Tf 1 µM, 298 K, read-out: Kd (dissociation constant), Apo-Tf) was 5.43 ± 1.46 µM. For the same compound, the “fa (fraction of fluorophore accessible to the quencher), Apo-Tf” value (apotransferrin (apo-Tf); apo-Tf 1 µM, compound 0–8 µM, 298 K) was 1.20 ± 0.49, the “Ksv* (Stern–Volmer quenching constant), Apo-Tf” value (apotransferrin (apo-Tf); apo-Tf 1 µM, compound 0–8 µM, Tris-HCl pH 7.4, 298 K) was “(0.44 ± 0.23) × 10^5 M^−1” and the “Kq (bimolecular quenching constant), Apo-Tf” value (apotransferrin (apo-Tf); [4]) was 4.4e+12 M⁻¹ s⁻¹. The “EB Displacement Assay K50 (half maximum binding constant)” value (EB–DNA system (CT-DNA)) was 31.39 ± 13.66 µM, the “KSV, Stern–Volmer quenching constant (EB–DNA)” value (EB–DNA system (CT-DNA)) was 8.90 ± 0.17 M^−1 (×10^3) and the “Ka (association binding constant), HSA” value ([3]; HSA 2.5 µM, 298 K) was “(9.03 ± 1.04) × 10^5 M^−1”. The “n1 (Number of Binding Sites), HSA” value ([3]; HSA 2.5 µM, 298 K) was 1.09 ± 0.01, the “n2 (Hill Coefficient), HSA” value ([3]; HSA 2.5 µM, 298 K) was 1.32 ± 0.11 and the Kd ([3]; HSA 2.5 µM, 298 K, read-out: Kd (dissociation constant), HSA) was 3.35 ± 0.11 µM. For the same compound, the “fa (fraction of fluorophore accessible to the quencher), HSA” value ([3]; HSA 2.5 µM, compound 0–8 µM, 298 K) was 1.09 ± 0.02, the “Ksv* (Stern–Volmer quenching constant), HSA” value ([3]; HSA 2.5 µM, compound 0–8 µM, Tris-HCl pH 7.4, 298 K) was “(1.09 ± 0.02) × 10^5 M^−1” and the “Kq (bimolecular quenching constant), HSA” value [3, 4] was 1.09e+13 M⁻¹ s⁻¹.
